Test system: pyramidal cells of hippocampal slice
Test: Penicilline-induced "epileptic" hippocampal slice preparation
Assay type: cell-based
Conditions: concentration of 6 μM
Method: The GABAB antagonists of the present invention interact at the GABAB receptor with IC50 values starting from about 10^-7 M (moles/liter) in rat brain cortex membranes. […] The antagonism against baclofen has also been shown in in vitro electrophysiological models, such as the penicilline-induced "epileptic" hippocampal slice preparation, where baclofen, at a concentration of 6 μM inhibits "epileptic"-like discharges of pyramidal cells. The compounds of the invention antagonise the effects of baclofen at concentrations from approximately 10 to approximately 100 μM. In vivo, antagonism has been shown by ionophoresis of baclofen on rat cerebral cortex, and systemic application of antagonists in doses of 10-100 mg/kg. The muscle relaxant effects of baclofen measured in the rotarod model are also antagonized at doses of about 30 mg/kg ip.

## NCC(CC(=O)O)c1ccc(Cl)cc1 (stereo not shown) [baclofen]
  inhibition of "epileptic"-like discharges of pyramidal cells: inhibits
